From US20100183754A1, “Extract and compound for blood pressure regulation” (Taipei Medical University, priority 2009, published 2010)

Legend:
[1] = target: ACE (Homo sapiens, UniProt P12821); assay: In vitro ACE inhibiting assay; format: biochemical; details: for ACE inhibiting activity (FIG. 11): purified in example 5, various concentrations
Source text: Wherein, the data of TC-1 to TC-4 are obtained from the whole plant extracts of Vitis thunbergii var. taiwaniana cultured by various plant growth substrates, respectively.
Moreover, the hot water extract of the Vitis thunbergii var. taiwaniana tea powder obtained in example 2 is used to perform the same ACE inhibiting assay, as shown in FIG. 6. […] Method A: culturing the tissue culture plantlet for 30 days, replacing the old culture medium with new culture medium, and then culturing the plantlet for another 60 days; in which the plantlet were cultured for 90 days. Method B: culturing the tissue culture plantlet for 30 days, directly adding the new culture medium onto the old culture medium, and then culturing for another 60 days; in which the plantlet were cultured for 90 days.
Various concentration of (+)-vitisin A and ampelopsin C purified in example 5 were used to perform ACE inhibiting activity assay.

[2] = system: spontaneous hypertensive rats (SHRs); assay: 24-hour blood pressure test of SHRs after single oral administration; format: in vivo, rat; details: single oral administration 10 mg/kg, versus control fed distilled water
Method: The Vitis thunbergii var. taiwaniana extracts of the present invention were used in the in vivo blood pressure regulation assay. The present embodiment was performed on 24 heads of five- to six-week old male spontaneous hypertensive rats (SHRs). The rats were housed for 7 weeks and then used for the assay while they were about twelve- to thirteen-week old. The SHRs were randomly divided into experimental group (12 heads of SHRs) and control group (12 heads of SHRs). The rats of the experimental group were fed with the Vitis thunbergii var. taiwaniana extract obtained in example 1, and the rats of the control group were fed with distilled water for instead. After oral administration by feeding tube, the blood pressure of all SHRs was measured for a certain time interval.
Similarly, the hot water extract of the roots and stems of the Vitis thunbergii var. taiwaniana cultivated in field for 5 to 6 months, which was transferred from tissue culture plantlets, was used in a 24-hour blood pressure test, as shown in FIG. 7 (the rats of the control group were fed with distilled water).
Moreover, the blood pressure of the SHRs fed with (+)-vitisin A purified in example 5 was measured during 24 hours after single oral administration.

Chain of ACE (P12821 30-1306, species assumed): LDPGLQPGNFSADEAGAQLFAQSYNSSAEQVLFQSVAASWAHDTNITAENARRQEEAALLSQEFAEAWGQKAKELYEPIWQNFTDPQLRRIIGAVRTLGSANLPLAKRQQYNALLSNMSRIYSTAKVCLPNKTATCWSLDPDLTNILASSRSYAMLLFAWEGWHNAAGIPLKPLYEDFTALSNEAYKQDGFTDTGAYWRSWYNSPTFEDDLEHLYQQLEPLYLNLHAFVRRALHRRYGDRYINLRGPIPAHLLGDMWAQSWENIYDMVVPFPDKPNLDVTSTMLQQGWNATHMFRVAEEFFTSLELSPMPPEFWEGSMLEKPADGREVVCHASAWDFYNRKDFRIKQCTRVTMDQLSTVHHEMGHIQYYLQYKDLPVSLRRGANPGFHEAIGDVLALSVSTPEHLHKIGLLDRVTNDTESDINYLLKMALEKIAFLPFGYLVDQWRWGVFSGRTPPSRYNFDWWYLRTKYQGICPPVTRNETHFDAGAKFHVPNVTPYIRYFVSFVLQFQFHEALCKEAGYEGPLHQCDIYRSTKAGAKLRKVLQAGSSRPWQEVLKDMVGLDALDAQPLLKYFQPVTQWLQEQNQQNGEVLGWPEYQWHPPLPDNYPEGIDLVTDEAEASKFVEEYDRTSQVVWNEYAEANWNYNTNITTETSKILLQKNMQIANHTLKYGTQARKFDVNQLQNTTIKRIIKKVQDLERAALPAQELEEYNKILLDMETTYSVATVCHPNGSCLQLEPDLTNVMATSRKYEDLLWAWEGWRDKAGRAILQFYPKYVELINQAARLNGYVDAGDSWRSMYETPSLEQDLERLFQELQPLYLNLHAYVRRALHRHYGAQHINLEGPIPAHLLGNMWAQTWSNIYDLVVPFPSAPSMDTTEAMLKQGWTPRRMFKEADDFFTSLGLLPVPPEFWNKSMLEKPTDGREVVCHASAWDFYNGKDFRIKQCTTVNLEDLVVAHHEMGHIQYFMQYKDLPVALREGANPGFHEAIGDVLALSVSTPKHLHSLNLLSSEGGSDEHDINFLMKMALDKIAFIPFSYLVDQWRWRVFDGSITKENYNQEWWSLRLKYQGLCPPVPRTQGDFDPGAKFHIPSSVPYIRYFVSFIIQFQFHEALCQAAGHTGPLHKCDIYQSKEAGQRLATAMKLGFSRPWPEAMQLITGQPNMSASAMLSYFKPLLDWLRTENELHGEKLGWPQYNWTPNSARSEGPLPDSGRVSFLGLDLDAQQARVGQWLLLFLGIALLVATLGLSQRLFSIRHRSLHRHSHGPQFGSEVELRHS

| IC50 ([1]; purified in example 5, FIG. 11) [µM] | Compound | ACE inhibiting activity (FIG. 11) [1] | blood pressure of SHRs in the period of 24 hours (FIG. 12) [2] |
| --- | --- | --- | --- |
|  | Oc1ccc([C@H]2c3c(O)cc(O)cc3[C@H]3c4c(cc(O)cc4[C@@H]2c2cc(/C=C/c4cc(O)cc5c4[C@H](c4cc(O)cc(O)c4)[C@@H](c4ccc(O)cc4)O5)ccc2O)O[C@@H]3c2ccc(O)cc2)cc1 [(+)-vitisin A] | obviously have ACE inhibiting activity | decreases significantly |
| 18.1 | Oc1ccc([C@H]2c3c(O)cc4c5c3[C@@H]([C@H](c3ccc(O)cc3)c3c(O)cc(O)cc3[C@H]5[C@H](c3ccc(O)cc3)O4)[C@@H]2c2cc(O)cc(O)c2)cc1 [ampelopsin C] | obviously have ACE inhibiting activity |  |
